Some results are limits rather than exact numbers.

From patent publication US7851637B2, “Compounds and methods for inhibiting the interaction of BCL proteins with binding partners” (Infinity Pharmaceuticals, Inc., priority 2004, dated 2010) come the findings set out here.

The target of one experiment is Bcl-2 (Homo sapiens, UniProt P10415). Put plainly: Bcl-2 binding affinity analysis (fluorescence polarization binding assay). The source says: (§1) Bcl-2 and Bcl-xL binding can be determined using a variety of known methods. One such assay is a sensitive and quantitative in vitro binding assay using fluorescence polarization (FP) described by Wang, J. -L.; Zhang, Z -J.; Choksi, S.; Sjam. S.; Lu, Z.; Croce, C. M.; Alnenri, E. S.; Komgold, R.; Huang, Z. Cell permeable Bcl-2 binding peptides: a chemical approach to apoptosis induction in tumor cells. Cancer Res. 2000, 60, 1498-1502).
Bcl-2, sequence (P10415 whole entry): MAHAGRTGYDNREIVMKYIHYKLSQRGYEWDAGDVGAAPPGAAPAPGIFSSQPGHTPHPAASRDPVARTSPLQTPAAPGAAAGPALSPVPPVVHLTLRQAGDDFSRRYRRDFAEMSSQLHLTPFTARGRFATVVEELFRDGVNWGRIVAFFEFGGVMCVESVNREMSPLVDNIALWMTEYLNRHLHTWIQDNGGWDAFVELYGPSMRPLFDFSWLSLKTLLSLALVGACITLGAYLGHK
(§2) Bcl-2 and Bcl-xL binding affinity analysis data is presented below for various compounds of the invention.

The next experiment has as its target Bcl-xL (Homo sapiens, UniProt Q07817). Briefly: Bcl-xL binding affinity analysis (fluorescence polarization binding assay). Also on record: scale not given here.
From the text: as §1, §2

Bcl-xL, sequence (Q07817 whole entry): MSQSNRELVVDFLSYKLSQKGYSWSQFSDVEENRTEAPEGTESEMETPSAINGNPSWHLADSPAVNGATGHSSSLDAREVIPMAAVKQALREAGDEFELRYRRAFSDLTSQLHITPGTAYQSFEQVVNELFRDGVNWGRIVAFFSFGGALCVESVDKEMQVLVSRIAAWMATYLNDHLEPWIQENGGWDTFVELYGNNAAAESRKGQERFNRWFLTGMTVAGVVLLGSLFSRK

On Bcl-2, `C[C@H](O)[C@@H]1[C@H](CO)ON(Cc2cccc(CN(CCN(C)C)Cc3ccccc3)c2)[C@@H]1C(=O)NCCc1cccc(-c2ccccc2)c1` [Compound 513] returned an inhibitory constant (Ki) of 0.8 to 6 µM. For the same molecule, the “Bcl-XL binding affinity Ki” value at Bcl-xL is recorded as “♯”.

`C[C@H](O)[C@@H]1[C@H](CO)ON(Cc2cccc(C#C[C@@H](O)c3ccccc3)c2)[C@@H]1C(=O)N[C@H]1C[C@H]2CC([C@@H]1C)C2(C)C` [Compound 52] registered an inhibition constant (Ki) on Bcl-2 of 0.8 to 6 µM. Further, the “Bcl-XL binding affinity Ki” value at Bcl-xL is on record as “♯”.

At Bcl-2, `COCCNC(=O)[C@@H]1[C@H]([C@H](C)O)[C@H](CO)ON1Cc1cccc(CN(Cc2ccccc2)[C@@H](CC(C)C)CN(C)C)c1` [Compound 535] yielded a Ki of 6 to 50 µM. Also, the “Bcl-XL binding affinity Ki” value at Bcl-xL was “♯”.

Take `C[C@H](O)[C@@H]1[C@H](CO)ON(Cc2cccc(CN(CCN(C)C)Cc3ccccc3)c2)[C@@H]1C(=O)N[C@H](C)c1ccc2ccccc2c1` [Compound 522]: the inhibition constant (Ki) on Bcl-2 fell in the range of 0.8 to 6 µM. Also, the “Bcl-XL binding affinity Ki” value on Bcl-xL is “♯”.

For the molecule `C[C@@H]1[C@@H](NC(=O)C2[C@H]([C@H](C)O)[C@H](CO)ON2Cc2cccc(C#CCNS(=O)(=O)c3ccc(-c4ccccc4)cc3)c2)C[C@H]2C[C@@H]1C2(C)C` (some centres unmarked) [Compound 73], on Bcl-2, the Ki lay in the range of 0.8 to 6 µM.

At Bcl-2, `C[C@H](O)[C@@H]1[C@H](CO)ON(Cc2cccc(CN(CCN(C)C)Cc3ccccc3)c2)[C@@H]1C(=O)NCCc1c[nH]c2ccccc12` [Compound 516] showed an inhibition constant Ki of 6 to 50 µM. The “Bcl-XL binding affinity Ki” value on Bcl-xL is “♯”.

As to `CC(O)[C@H]1[C@@H](CO)ON(Cc2cccc(C#CC(O)c3ccc(F)cc3)c2)[C@H]1C(=O)NCCCN(C)c1ccccc1` (some centres unmarked) [Compound 29], the Ki at Bcl-2 is 0.8 to 6 µM. Also, on Bcl-xL, the “Bcl-XL binding affinity Ki” value is recorded as “♯”.

Take `C[C@@H]1[C@@H](NC(=O)[C@@H]2[C@H]([C@H](C)O)[C@H](CO)ON2Cc2cccc(-c3cccc(C(=O)N4CCN(C)CC4)c3)c2)C[C@H]2C[C@@H]1C2(C)C` [Compound 129]: at Bcl-2, the inhibition constant Ki is below 0.8 µM. Besides, the “Bcl-XL binding affinity Ki” value at Bcl-xL was “♯♯”.

`C[C@@H](O)[C@H]1[C@@H](CO)ON(Cc2cccc(C#CCNC(=O)c3ccccc3)c2)[C@H]1C(=O)NCc1ccc(-c2ccccc2)cc1` [Compound 60]: the Ki at Bcl-2 is above 50 µM. Also, the “Bcl-XL binding affinity Ki” value at Bcl-xL is recorded as “♯♯”.

In turn, `CC(C)C[C@@H](CN(C)C)N(Cc1ccccc1)Cc1cccc(CN2O[C@@H](CO)[C@@H]([C@H](C)O)[C@H]2C(=O)NCc2ccc(-c3ccccc3)cc2)c1` [Compound 536] returned an inhibitory constant (Ki) at Bcl-2 of 0.8 to 6 µM. The “Bcl-XL binding affinity Ki” value on Bcl-xL is listed as “♯”.

`C[C@@H](O)[C@H]1[C@@H](CO)ON(Cc2cccc(C#CC(O)c3ccc(-n4ccnc4)cc3)c2)[C@H]1C(=O)NCCCN(C)c1ccccc1` (some centres unmarked) [Compound 42] yielded a Ki at Bcl-2 of 0.8 to 6 µM. Moreover, the “Bcl-XL binding affinity Ki” value at Bcl-xL is on record as “♯♯”.

Turning to `C[C@H](O)[C@@H]1[C@H](CO)ON(Cc2cccc(CN(CCN(C)C)Cc3ccccc3)c2)[C@@H]1C(=O)NC1C[C@H]2C[C@@H]([C@@H]1C)C2(C)C` (some centres unmarked) [Compound 221], the inhibition constant Ki at Bcl-2 is below 0.8 µM. Moreover, at Bcl-xL, the “Bcl-XL binding affinity Ki” value is on record as “♯”.

At Bcl-2, `CC(O)C1C(CO)ON(Cc2cccc(CN3CCN(C(=O)OCc4ccccc4)CC3)c2)C1C(=O)NC1CC2CC(C1C)C2(C)C` (centres unmarked) [Compound 458] had a Ki of 0.8 to 6 µM. The “Bcl-XL binding affinity Ki” value at Bcl-xL is recorded as “♯”.

Take `C[C@@H]1[C@@H](NC(=O)[C@@H]2C([C@H](C)O)[C@H](CO)ON2Cc2cccc(CN(CCN(C)C)Cc3ccccc3N3CCCCC3)c2)C[C@H]2C[C@@H]1C2(C)C` (some centres unmarked) [Compound 410]: the Ki at Bcl-2 was below 0.8 µM. Also, at Bcl-xL, the “Bcl-XL binding affinity Ki” value is “♯”.

Turning to `C[C@@H]1[C@@H](NC(=O)[C@@H]2[C@H]([C@H](C)O)[C@H](CO)ON2Cc2cccc(-c3cccc([S+](C)[O-])c3)c2)C[C@H]2C[C@@H]1C2(C)C` (some centres unmarked) [Compound 202], on Bcl-2, the Ki is below 0.8 µM. Moreover, the “Bcl-XL binding affinity Ki” value on Bcl-xL is “♯”.

For `C[C@@H]1[C@@H](NC(=O)[C@@H]2[C@H]([C@H](C)O)[C@H](CO)ON2Cc2cccc(-c3cccc(S(C)(=O)=O)c3)c2)C[C@H]2C[C@@H]1C2(C)C` [Compound 200], the Ki at Bcl-2 was below 0.8 µM. Further, the “Bcl-XL binding affinity Ki” value on Bcl-xL is on record as “♯”.

Take `C[C@@H]1[C@@H](NC(=O)[C@@H]2[C@H]([C@H](C)O)[C@H](CO)ON2CCCCN(CCc2ccccc2)CCN(C)C)C[C@H]2C[C@@H]1C2(C)C` [Compound 546]: the Ki on Bcl-2 was in the range of 0.8 to 6 µM. Also, the “Bcl-XL binding affinity Ki” value on Bcl-xL is recorded as “♯”.

As for `CC(O)C1C(CO)ON(Cc2cccc(CN(CCN(C)C)c3ccccc3)c2)C1C(=O)NC1CC2CC(C1C)C2(C)C` (centres unmarked) [Compound 476], the Ki on Bcl-2 was below 0.8 µM. The “Bcl-XL binding affinity Ki” value on Bcl-xL is given as “♯”.

On to `CC(CN(C)C)NC(=O)c1cccc(-c2cccc(CN3O[C@@H](CO)[C@@H]([C@H](C)O)[C@H]3C(=O)N[C@H]3C[C@H]4C[C@@H]([C@@H]3C)C4(C)C)c2)c1` (some centres unmarked) [Compound 110], for which the Ki on Bcl-2 is below 0.8 µM. At Bcl-xL, the “Bcl-XL binding affinity Ki” value is reported as “♯”.

With `C[C@@H]1[C@@H](NC(=O)[C@@H]2C([C@H](C)O)[C@H](CO)ON2Cc2cccc(CN(Cc3ccccc3)C[C@@H]3CCCN3C(=O)OCc3ccccc3)c2)C[C@H]2C[C@@H]1C2(C)C` (some centres unmarked) [Compound 439], the Ki on Bcl-2 was in the range of 0.8 to 6 µM. In addition, the “Bcl-XL binding affinity Ki” value at Bcl-xL was “♯”.

As for `C[C@@H]1[C@@H](NC(=O)[C@@H]2[C@H]([C@H](C)O)[C@H](CO)ON2Cc2cccc(C#CCNCc3ccccn3)c2)C[C@H]2C[C@@H]1C2(C)C` [Compound 66], the Ki on Bcl-2 was 0.8 to 6 µM.

With `C[C@@H]1[C@@H](NC(=O)[C@@H]2[C@H]([C@H](C)O)[C@H](CO)ON2Cc2cccc(C#CCNC(=O)NCc3ccccc3)c2)C[C@H]2C[C@@H]1C2(C)C` [Compound 78], at Bcl-2, the Ki was in the range of 0.8 to 6 µM.

`C[C@@H](O)[C@H]1[C@@H](CO)ON(Cc2cccc(C#CCNS(=O)(=O)c3cccc4cccnc34)c2)[C@H]1C(=O)NCCCN(C)c1ccccc1` [Compound 75]: on Bcl-2, the Ki lay in the range of 0.8 to 6 µM.

Consider `C[C@@H](O)[C@H]1[C@@H](CO)ON(Cc2cccc(C#CCNC(=O)NC3CC3c3ccccc3)c2)[C@H]1C(=O)NCCCN(C)c1ccccc1` (some centres unmarked) [Compound 80], for which the Ki at Bcl-2 is 0.8 to 6 µM.

Turning to `C[C@@H](O)[C@H]1[C@@H](CO)ON(Cc2cccc(C#CCNC(=O)NCc3ccccc3)c2)[C@H]1C(=O)NCCCN(C)c1ccccc1` [Compound 77], the Ki at Bcl-2 is 0.8 to 6 µM.

In turn, `C[C@@H]1[C@@H](NC(=O)[C@@H]2[C@H]([C@H](C)O)[C@H](CO)ON2Cc2cccc(C#CCNS(=O)(=O)c3ccccc3)c2)C[C@H]2C[C@@H]1C2(C)C` [Compound 76] came in with an inhibition constant Ki at Bcl-2 of 0.8 to 6 µM.

At Bcl-2, `C[C@@H]1[C@@H](NC(=O)[C@@H]2[C@H]([C@H](C)O)[C@H](CO)ON2Cc2cccc(C#CCNS(=O)(=O)Cc3ccccc3)c2)C[C@H]2C[C@@H]1C2(C)C` [Compound 74] came in with a Ki of 0.8 to 6 µM.

In turn, `C[C@@H](O)[C@H]1[C@@H](CO)ON(Cc2cccc(C#CCNC(=O)Nc3ccccc3)c2)[C@H]1C(=O)NCCCN(C)c1ccccc1` [Compound 79] gave a Ki at Bcl-2 of 0.8 to 6 µM.

In the case of `C[C@@H](O)[C@H]1[C@@H](CO)ON(Cc2cccc(C#CCNS(=O)(=O)c3ccc(Oc4ccccc4)cc3)c2)[C@H]1C(=O)NCCCN(C)c1ccccc1` [Compound 72], the Ki on Bcl-2 was 6 to 50 µM.

`C[C@@H](O)[C@H]1[C@@H](CO)ON(Cc2cccc(C#CCNCc3ccc(-c4ccccc4)cc3)c2)[C@H]1C(=O)NCCCN(C)c1ccccc1` [Compound 71]: the Ki on Bcl-2 lay in the range of 6 to 50 µM.

At Bcl-2, `C[C@@H]1[C@@H](NC(=O)[C@@H]2[C@H]([C@H](C)O)[C@H](CO)ON2Cc2cccc(C#CCNCc3c[nH]c4ccccc34)c2)C[C@H]2C[C@@H]1C2(C)C` [Compound 68] registered a Ki of 0.8 to 6 µM.
